Columns and labels:
[1] = xn = mol fraction of the nth substance listed; details: 101.3 kPa, Liquid, Vibrating tube method
[2] = relative permittivity at zero frequency (dimensionless); xn = mol fraction of the nth substance listed; details: 101.3 kPa, Liquid, AC Method
[3] = 101.33 kPa, Liquid, Vibrating tube method
[4] = relative permittivity at zero frequency (dimensionless); details: 101.33 kPa, Liquid, AC method

COCCOCCOC [2,5,8-trioxanonane] + CCCCCCC
Details	mass density [kg/m3]	relative permittivity at zero frequency
[1], 288.15 K, x2 = 0.0482	935.46	–
[1], 288.15 K, x2 = 0.0986	921.11	–
[1], 288.15 K, x2 = 0.1969	893.54	–
[1], 288.15 K, x2 = 0.3042	864.14	–
[1], 288.15 K, x2 = 0.4054	836.87	–
[1], 288.15 K, x2 = 0.5047	810.62	–
[1], 288.15 K, x2 = 0.6049	784.64	–
[1], 288.15 K, x2 = 0.6982	760.9	–
[1], 288.15 K, x2 = 0.788	738.48	–
[1], 288.15 K, x2 = 0.8899	713.78	–
[1], 288.15 K, x2 = 0.9452	700.73	–
[1], 298.15 K, x2 = 0.0484	925.56	–
[1], 298.15 K, x2 = 0.1001	910.8	–
[1], 298.15 K, x2 = 0.1957	884.11	–
[1], 298.15 K, x2 = 0.2887	858.66	–
[1], 298.15 K, x2 = 0.4049	827.49	–
[1], 298.15 K, x2 = 0.4975	803.13	–
[1], 298.15 K, x2 = 0.5939	778.25	–
[1], 298.15 K, x2 = 0.6925	753.3	–
[1], 298.15 K, x2 = 0.7931	728.38	–
[1], 298.15 K, x2 = 0.8988	703	–
[1], 298.15 K, x2 = 0.9481	691.49	–
[1], 308.15 K, x2 = 0.0482	915.56	–
[1], 308.15 K, x2 = 0.098	901.53	–
[1], 308.15 K, x2 = 0.1961	874.29	–
[1], 308.15 K, x2 = 0.3036	845.06	–
[1], 308.15 K, x2 = 0.3981	819.81	–
[1], 308.15 K, x2 = 0.4994	793.28	–
[1], 308.15 K, x2 = 0.599	767.73	–
[1], 308.15 K, x2 = 0.6963	743.26	–
[1], 308.15 K, x2 = 0.7844	721.56	–
[1], 308.15 K, x2 = 0.8841	697.7	–
[1], 308.15 K, x2 = 0.9372	685.34	–
[1], 308.15 K, x2 = 0.9738	676.94	–
[2], 288.15 K, x2 = 0.0492	–	7.25
[2], 288.15 K, x2 = 0.0982	–	6.84
[2], 288.15 K, x2 = 0.1991	–	6.04
[2], 288.15 K, x2 = 0.3006	–	5.3
[2], 288.15 K, x2 = 0.398	–	4.65
[2], 288.15 K, x2 = 0.4977	–	4.05
[2], 288.15 K, x2 = 0.5854	–	3.58
[2], 288.15 K, x2 = 0.7026	–	3.02
[2], 288.15 K, x2 = 0.801	–	2.61
[2], 288.15 K, x2 = 0.8927	–	2.28
[2], 288.15 K, x2 = 0.9408	–	2.12
[2], 298.15 K, x2 = 0.0494	–	6.98
[2], 298.15 K, x2 = 0.0988	–	6.59
[2], 298.15 K, x2 = 0.1956	–	5.85
[2], 298.15 K, x2 = 0.303	–	5.11
[2], 298.15 K, x2 = 0.3959	–	4.52
[2], 298.15 K, x2 = 0.4948	–	3.96
[2], 298.15 K, x2 = 0.6028	–	3.4
[2], 298.15 K, x2 = 0.7018	–	2.95
[2], 298.15 K, x2 = 0.7937	–	2.59
[2], 298.15 K, x2 = 0.891	–	2.25
[2], 298.15 K, x2 = 0.9419	–	2.09
[2], 308.15 K, x2 = 0.0494	–	6.73
[2], 308.15 K, x2 = 0.0981	–	6.35
[2], 308.15 K, x2 = 0.1993	–	5.62
[2], 308.15 K, x2 = 0.3025	–	4.94
[2], 308.15 K, x2 = 0.3951	–	4.39
[2], 308.15 K, x2 = 0.4936	–	3.86
[2], 308.15 K, x2 = 0.5951	–	3.36
[2], 308.15 K, x2 = 0.7021	–	2.89
[2], 308.15 K, x2 = 0.7993	–	2.53
[2], 308.15 K, x2 = 0.8953	–	2.21
[2], 308.15 K, x2 = 0.9472	–	2.06

COCCOC [1,2-dimethoxyethane] + CCCCCCC
Details	mass density [kg/m3]	relative permittivity at zero frequency
[1], 288.15 K, x2 = 0.0495	857.82	–
[1], 288.15 K, x2 = 0.0995	844.28	–
[1], 288.15 K, x2 = 0.2045	818.14	–
[1], 288.15 K, x2 = 0.2979	797.21	–
[1], 288.15 K, x2 = 0.403	775.91	–
[1], 288.15 K, x2 = 0.5042	757.33	–
[1], 288.15 K, x2 = 0.5998	741.27	–
[1], 288.15 K, x2 = 0.7021	725.61	–
[1], 288.15 K, x2 = 0.8053	711.33	–
[1], 288.15 K, x2 = 0.8998	699.44	–
[1], 288.15 K, x2 = 0.9508	693.43	–
[1], 298.15 K, x2 = 0.0503	846.65	–
[1], 298.15 K, x2 = 0.0974	834.02	–
[1], 298.15 K, x2 = 0.2008	808.4	–
[1], 298.15 K, x2 = 0.2994	786.5	–
[1], 298.15 K, x2 = 0.401	766.2	–
[1], 298.15 K, x2 = 0.5026	747.97	–
[1], 298.15 K, x2 = 0.5967	732.41	–
[1], 298.15 K, x2 = 0.6994	716.96	–
[1], 298.15 K, x2 = 0.8019	702.94	–
[1], 298.15 K, x2 = 0.9009	690.67	–
[1], 298.15 K, x2 = 0.9509	684.9	–
[1], 308.15 K, x2 = 0.0496	836.12	–
[1], 308.15 K, x2 = 0.0998	822.77	–
[1], 308.15 K, x2 = 0.2009	798.1	–
[1], 308.15 K, x2 = 0.3035	775.66	–
[1], 308.15 K, x2 = 0.4011	756.35	–
[1], 308.15 K, x2 = 0.5021	738.24	–
[1], 308.15 K, x2 = 0.6	722.36	–
[1], 308.15 K, x2 = 0.7018	707.33	–
[1], 308.15 K, x2 = 0.8036	693.71	–
[1], 308.15 K, x2 = 0.9014	681.82	–
[1], 308.15 K, x2 = 0.9519	676.15	–
[2], 288.15 K, x2 = 0.1012	–	6.32
[2], 288.15 K, x2 = 0.2002	–	5.43
[2], 288.15 K, x2 = 0.3003	–	4.69
[2], 288.15 K, x2 = 0.3997	–	4.07
[2], 288.15 K, x2 = 0.5024	–	3.52
[2], 288.15 K, x2 = 0.6016	–	3.07
[2], 288.15 K, x2 = 0.7002	–	2.72
[2], 288.15 K, x2 = 0.7979	–	2.42
[2], 288.15 K, x2 = 0.9022	–	2.15
[2], 288.15 K, x2 = 0.9511	–	2.04
[2], 298.15 K, x2 = 0.1013	–	6.04
[2], 298.15 K, x2 = 0.2013	–	5.2
[2], 298.15 K, x2 = 0.3011	–	4.5
[2], 298.15 K, x2 = 0.3992	–	3.92
[2], 298.15 K, x2 = 0.503	–	3.41
[2], 298.15 K, x2 = 0.6035	–	3
[2], 298.15 K, x2 = 0.7028	–	2.67
[2], 298.15 K, x2 = 0.7982	–	2.38
[2], 298.15 K, x2 = 0.902	–	2.13
[2], 298.15 K, x2 = 0.9497	–	2.03
[2], 308.15 K, x2 = 0.0493	–	6.26
[2], 308.15 K, x2 = 0.1001	–	5.79
[2], 308.15 K, x2 = 0.2005	–	4.99
[2], 308.15 K, x2 = 0.3016	–	4.34
[2], 308.15 K, x2 = 0.399	–	3.8
[2], 308.15 K, x2 = 0.5009	–	3.32
[2], 308.15 K, x2 = 0.603	–	2.93
[2], 308.15 K, x2 = 0.7028	–	2.6
[2], 308.15 K, x2 = 0.802	–	2.33
[2], 308.15 K, x2 = 0.8974	–	2.11
[2], 308.15 K, x2 = 0.9505	–	2.01

COCCOCCOC [2,5,8-trioxanonane]
Details	mass density, 288.15 K [kg/m3]	mass density, 298.15 K [kg/m3]	mass density, 308.15 K [kg/m3]	relative permittivity at zero frequency, 288.15 K	relative permittivity at zero frequency, 298.15 K	relative permittivity at zero frequency, 308.15 K
[3]	949.34	939.35	929.36	–	–	–
[4]	–	–	–	7.69	7.4	7.12

COCCOC [1,2-dimethoxyethane]
Details	mass density, 288.15 K [kg/m3]	mass density, 298.15 K [kg/m3]	mass density, 308.15 K [kg/m3]	relative permittivity at zero frequency, 288.15 K	relative permittivity at zero frequency, 298.15 K	relative permittivity at zero frequency, 308.15 K
[3]	872.05	861.14	850.06	–	–	–
[4]	–	–	–	7.41	7.07	6.75

CCCCCCC [heptane]
Details	mass density, 288.15 K [kg/m3]	mass density, 298.15 K [kg/m3]	mass density, 308.15 K [kg/m3]	relative permittivity at zero frequency, 288.15 K	relative permittivity at zero frequency, 298.15 K	relative permittivity at zero frequency, 308.15 K
[3]	688.03	679.58	671.03	–	–	–
[4]	–	–	–	1.94	1.93	1.92
